Assays:
[1] = tested on: TNF-α production in THP-1 cells; experiment: THP-1 cytological TNFa ELISA assay (LPS-stimulated); format: cell-based; conditions: Homo sapiens, TNF-α in culture supernatant, 150 ng/mL LPS, 18 hours
Experimental: THP-1 human acute […] leukemia cells were purchased from ATCC (Cat #TIB-202) and cultured at 37° C. in 5% CO2 incubator. The composition of medium was RPMI1640 (Gibco, Cat #22400-105), and the supplementary compositions were 10% FBS (Gibco, Cat #10091148); 1% PenStrep (Gibco, Cat #15140); 0.05 mM 2-Mercaptoethanol (Sigma, Cat #M6250).
TNF-α Elisa kit was used to detect the content of TNF-α in cell culture supernatant samples. TNF-α was produced by stimulating THP-1 cells with 150 ng/mL LPS (Sigma, Cat #L6529).
THP-1 cells cultured normally at logarithmic growth stage were seeded in a 96-well plate (Corning #3599) at a certain concentration (1*10^5/100 μL) and then put into a cell incubator for incubation. After two hours, 16.7 μL of different concentrations of the compound to be tested (8*final concentration) were added and incubated in an incubator. After one hour, 16.7 μL of 1200 ng/mL LPS was added and incubated in an incubator. After 18 hours, the culture supernatant samples were collected by centrifugation, and the content of TNF-α could be detected by TNF-α Elisa kit. Finally, OD signals (OD450-OD570) were read on envision board reader.
The OD450-OD570 signal value was converted into a percentage inhibition rate. Inhibition rate %=(ZPE−sample)/(ZPE−HPE)*100.
“HPE” refers to the OD450-OD570 signal value of the control well without LPS stimulated cells, and “ZPE” refers to the OD450-OD570 signal value of the control well with LPS stimulated cells. The IC50 value of the compound was calculated by XLFit in the excel add-in. Y=Bottom+(Top−Bottom)/(1+(IC50/X)^HillSlope). Equation: […]

[2] = tested on: OCI-LY10 human B-cell lymphoma cells; experiment: OCI-LY10 cell proliferation inhibition (CellTiter-Glo); format: cell-based; conditions: OCI-Ly10, 72 h, treated for 3 days
Experimental: OCI-LY10 human B-cell lymphoma cells were cultured in a 37° C., 5% CO2 incubator. The composition of medium was IMDM (GIBCO, Cat #12440053); the supplementary compositions were 20% FBS (Hyclone, Cat #SH30084.03); 1% PenStrep (Thermo, Cat #SV30010).
(§1) The tumor cell lines OCI-LY10 and TMD8 were used to detect the effect of the compound on inhibiting tumor cell proliferation in vitro. The tumor cell line was cultured in a 37° C., 5% CO2 incubator according to the culture conditions shown, and passaged regularly, then the cells in the logarithmic growth phase were taken, counted, and spread in a 96-well plate (the cells in each well were adjusted to an appropriate concentration, a total of […] per well was added). After incubating overnight in a 37° C., 5% CO2 incubator, drugs with different concentration gradients (10 μL of drug solution was added) were added and treated for 3 days, then 50 μL of CellTiter-Glo working solution was added to each well, and the cell plate was wrapped with aluminum foil to avoid light. The culture plate was shaken on an orbital shaker for 2 minutes to induce cell lysis, and placed at room temperature for 10 minutes to stabilize the luminescence signal, then the luminescence signal was detected on the 2104 EnVision plate reader.
(§2) The Inhibition rate (IR) of the tested compound was calculated using the following formula: IR (%)=(1−(RLU compound−RLU blank control)/(RLU solvent control−RLU blank control))*100%.
(§3) The inhibition rates of different concentrations of the compounds were calculated in Excel, and then the inhibition curves were made by GraphPad Prism software and the related parameters were calculated, including the minimum inhibition rate, the maximum inhibition rate and IC50.

[3] = tested on: TMD8 human B-cell lymphoma cells; experiment: TMD-8 cell proliferation inhibition (CellTiter-Glo); format: cell-based; conditions: TMD8, 72 h, treated for 3 days
Experimental: TMD8 human B-cell lymphoma cells were cultured in a 37° C., 5% CO2 incubator. The composition of medium was RPMI1640 (GIBCO, Cat #22400-089); the supplementary compositions were 10% FBS (Hyclone, Cat #SH30084.03); 1% PenStrep (Thermo, Cat #SV30010).
as §1, §2, §3

TNF-α secretion = experiment: In vivo pharmacodynamic study of LPS-induced TNF-α secretion in SD rats; conditions: SD rat, oral
Experimental: SD rats were orally given the solvent, the positive drug dexamethasone (DEX, 0.5 mg/kg) and the tested compound, and LPS (1 mg/kg) was intraperitoneally injected 0.5 hours after the administration. Two hours after LPS injection, the animals were euthanized by CO2, and blood samples were collected from the heart and placed in an anticoagulant tube containing EDTA-K2, then partial anticoagulated blood was centrifuged to separate the plasma and the plasma was frozen at −80° C.
The plasma was taken out of the refrigerator at −80° C., thawed at room temperature, and the concentration of TNF-α in the plasma was detected according to the ELISA kit instructions.
The experimental data were expressed by Mean±standard error (Mean±SEM), and the level of TNF-α was expressed by One-way ANOVA, and p<0.05 was considered as a significant difference. The result of in vivo pharmacodynamic study of TNF-α secretion in SD rats induced by […] (LPS) are shown in FIG. 1

[4] = tested on: human B-cell lymphoma OCI-LY10 cell subcutaneous xenograft tumor; experiment: Human B-cell lymphoma OCI-LY10 cell subcutaneous xenograft tumor mouse model; format: in vivo
Experimental: The objective of the experiment was to study the efficacy of WX001 as the test drug on human B-cell lymphoma OCI-LY10 cell subcutaneous xenograft tumor in CB17 SCID mouse model.
OCI-LY10 human B-cell lymphoma cells were cultured in a 37° C., 5% CO2 incubator.
OCI-LY10 tumor cells were cultured and passaged, and 0.2 mL (1×10^7 cells) OCI-LY10 cells were subcutaneously inoculated on the right back of each […] (with Matrigel, volume ratio 1:1), and the group administration was started when the average tumor volume reached 167 mm^3. The health status and death of animals were monitored every day, and routine examinations included observing the effects of tumor growth and drug treatment on daily behaviors of animals, such as behavioral activities, food intake and water intake, weight change (weight was measured twice a week), tumor size (tumor volume was measured twice a week), appearance signs or other abnormal conditions.
The experimental index was to investigate whether the tumor growth was inhibited, delayed or cured. Including the measurement of tumor volume (TV), and the calculation of the compound's anti-tumor efficacy using TGI (%) or the relative tumor proliferation rate T/C (%).
TV=0.5a×b^2, a and b represented the long diameter and short diameter of the tumor, respectively.
T/C %=TRTV/CRTV×100% (TRTV: RTV in treatment group; CRTV: RTV in negative control group). Relative tumor volume (RTV) was calculated according to the results of tumor measurement, and the calculation formula was RTV=Vt/V0, wherein V0 was the average tumor volume measured at the time of group administration (i.e., d0), Vt was the average tumor volume at a certain measurement, and TRTV and CRTV were the data taken at the same day.

[5] = 50 mpk, 18 days after the start of administration, p<0.001

## Cc1cc(-c2nc(C(=O)Nc3cn4cc(CCC(C)(C)O)nc4cc3N3CCCCC3)co2)ccn1 [WX001]
[1]
  IC50: 124 nM
[2]
  IC50: 128 nM
[3]
  IC50: 300 nM
TNF-α secretion; LPS 1 mg/kg intraperitoneal 0.5 hours after administration, plasma 2 hours after LPS
  inhibitory effect on TNF-α secretion induced by LPS: significant inhibitory effect
TNF-α secretion; dose of 20 mpk
  efficacy on LPS-induced TNF-α secretion compared with dexamethasone: equivalent to the efficacy of dexamethasone (DEX) at a dose of 0.5 mpk
[4]; 50 mpk, 18 days
  anti-tumor effect compared with the solvent control group: significant anti-tumor effect
[4]; [5]
  T/C value: 22%
  TGI value: 109%
[4]; OCI-LY10 xenograft mice, 18 days of administration
  drug tolerance (body weight, abnormality): well tolerated

— patent US12459940B2, “Oxazole compound as multi-targeted inhibitor of IRAK4 and BTK” (SHANGHAI FOSUN PHARMACEUTICAL INDUSTRIAL DEVELOPMENT CO., …, priority 2019, dated 2025)
